Here are results for three compounds from ChEMBL document CHEMBL1770078, “Discovery of a potent peptidic cyclophilin A inhibitor Trp-Gly-Pro” (Eur J Med Chem, 2011).

The target in series [1] is T1, Peptidyl-prolyl cis-trans isomerase A (Homo sapiens, UniProt P62937). The experiment in a line: Inhibition of PPIase activity of Cyclophilin A by Spectrophotometry.
The target of series [2] is T1, Peptidyl-prolyl cis-trans isomerase A. The experiment in a line: Binding affinity to Cyclophilin A.
Target sequence in this assay (P62937 whole entry): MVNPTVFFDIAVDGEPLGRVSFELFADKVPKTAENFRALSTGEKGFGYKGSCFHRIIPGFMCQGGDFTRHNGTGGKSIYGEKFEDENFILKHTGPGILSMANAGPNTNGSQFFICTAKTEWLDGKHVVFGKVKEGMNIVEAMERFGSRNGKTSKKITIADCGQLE
Series [3] has as its system Human immunodeficiency virus 1. The experiment in a line: Antiviral activity against HIV1 3B infected in human MT2 cells assessed as inhibition of viral replication at 1 mM after 48 hrs by flow cytometry. In kind it is functional. The conditions noted are these: Human immunodeficiency virus 1, 3B, MT2, 48 h. In general terms: In flow cytometry, cells or beads pass a laser one at a time.

For the next series, the system named is SK-HEP1. The experiment in a line: Cytotoxicity against human SKHEP1 cells upto 100 uM after 48 hrs by MTT assay. It counts as cell-based. The conditions noted are these: sk-hep1, 48 h.

pIC50, pKd: −log10 of the molar value. Where a SMILES comes first, the peptide text is derived from it.

For orientation: inhibition means the change of the read-out against control, counted positive when it falls. One may read the pIC50 as the negative decadic logarithm of the IC50, by convention in mol/L. As usually defined, the pKd is the Kd on a negative log10 scale, so that one unit is a factor of ten. For `N[C@@H](Cc1c[nH]c2ccccc12)C(=O)NCC(=O)N1CCC[C@H]1C(=O)O` (H-Trp-Gly-Pro-OH), the inhibition entry in series [1] was “Dose-dependent effect”. In series [1] (read-out: IC50), the pIC50 is 7.48. The negative logarithm of the Kd (pKd) in series [2] (read-out: Kd) is 5.47. Further, in series [3], the inhibition at 1000 µM was 75.5%. Also, the Activity result with SK-HEP1 is listed as “Non-toxic”.

For `N[C@@H](Cc1ccc(O)cc1)C(=O)NCC(=O)N1CCC[C@H]1C(=O)O` (H-Tyr-Gly-Pro-OH), the IC50 result in series [1] is recorded as “Not Active”. In addition, the Kd entry in series [2] is on record as “Not Active”.

Consider `C[C@H](NC(=O)[C@@H](N)Cc1c[nH]c2ccccc12)C(=O)NCC(=O)N1CCC[C@H]1C(=O)O` (H-WAGP-OH), for which the IC50 result in series [1] is “Not Active”. Moreover, in series [2], the Kd entry is “Not Active”.
